Measurements reported in ChEMBL document CHEMBL3091421, “Discovery of benzo[d]imidazo[5,1-b]thiazole as a new class of phosphodiesterase 10A inhibitors” (Bioorg Med Chem Lett, 2013).

Legend:
Mus musculus [1] = test: Antipsychotic activity in ip dosed CD-1 mouse assessed as reduction in apomorphine-induced sniffing behavior administered 15 mins prior to apomorphine-challenge measured immediately relative to vehicle-treated control; assay type: functional; details: CD-1, ip
Mus musculus [2] = test: Antipsychotic activity in ip dosed CD-1 mouse assessed as reduction in apomorphine-induced climbing behavior administered 15 mins prior to apomorphine-challenge measured immediately relative to vehicle-treated control; assay type: functional; details: CD-1, ip
[3] = Half life in Sprague-Dawley rat at 10 mg/kg, po by LC-MS/MS analysis; assay type: ADME, organism-based; design: dose 10 mg/kg, route oral; details: in vivo
Rattus norvegicus [4] = test: Antipsychotic activity in ip dosed Sprague-Dawley rat assessed as reduction in quipazine-induced head-twitches administered 15 mins prior to quipazine-challenge measured immediately relative to vehicle-treated control; assay type: functional
Rattus norvegicus [5] = test: Antipsychotic activity in Sprague-Dawley rat psychosis model assessed as inhibition of MK-801-induced stereotypy at 0.3 mg/kg, ip administered 5 mins prior to MK-801-challenge measured after 15 mins up to 1 hr relative to vehicle-treated control; assay type: functional; details: route intraperitoneal
[6] = Metabolic stability in human liver microsomes assessed as compound remaining after 60 mins; assay type: ADME; details: read-out: Stability
Rattus norvegicus [7] = test: Antipsychotic activity in Sprague-Dawley rat conditioned avoidance response model assessed as reduction in avoidance at 6 mg/kg, ip after 15 mins relative to vehicle-treated control; assay type: functional; design: scale not given: the % may be the effect or the level left; details: route intraperitoneal
Rattus norvegicus [8] = test: Antipsychotic activity in Sprague-Dawley rat conditioned avoidance response model assessed as reduction in avoidance at 1 mg/kg, ip after 15 mins relative to vehicle-treated control; assay type: functional; design: scale not given: the % may be the effect or the level left; details: route intraperitoneal
[9] = Ratio of drug level in brain to plasma in Sprague-Dawley rat at 10 mg/kg, po after 30 mins; assay type: ADME, organism-based; design: dose 10 mg/kg, route oral; details: brain and plasma, read-out: BPR
Homo sapiens [10] = species on record: Homo sapiens; test: Selectivity ratio of IC50 for PDE9A2 (unknown origin) to IC50 for human recombinant PDE10A
[11] = biological target: High affinity cGMP-specific 3',5'-cyclic phosphodiesterase 9A (Homo sapiens) (UniProt O76083); test: Inhibition of PDE9A2 (unknown origin) using [3H]-cGMP as substrate at 10 uM after 30 mins by radiometric assay
High affinity cGMP-specific 3',5'-cyclic phosphodiesterase 9A (Homo sapiens), sequence (O76083 whole entry): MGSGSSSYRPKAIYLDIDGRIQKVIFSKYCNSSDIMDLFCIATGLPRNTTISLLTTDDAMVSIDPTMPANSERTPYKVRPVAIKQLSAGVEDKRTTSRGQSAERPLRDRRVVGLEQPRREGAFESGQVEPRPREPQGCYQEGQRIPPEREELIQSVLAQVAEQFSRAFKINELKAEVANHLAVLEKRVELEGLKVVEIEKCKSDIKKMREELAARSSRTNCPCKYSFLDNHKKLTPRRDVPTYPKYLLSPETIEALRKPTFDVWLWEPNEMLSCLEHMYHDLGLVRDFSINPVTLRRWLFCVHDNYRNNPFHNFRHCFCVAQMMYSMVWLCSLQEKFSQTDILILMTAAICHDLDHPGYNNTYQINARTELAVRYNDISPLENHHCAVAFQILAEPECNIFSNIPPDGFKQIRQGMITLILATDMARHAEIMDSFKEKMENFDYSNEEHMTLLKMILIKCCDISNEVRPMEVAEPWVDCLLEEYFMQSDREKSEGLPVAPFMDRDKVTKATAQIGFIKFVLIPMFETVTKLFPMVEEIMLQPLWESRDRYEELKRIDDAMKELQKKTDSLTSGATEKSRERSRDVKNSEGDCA

Rattus norvegicus [12] = test: Antipsychotic activity in Sprague-Dawley rat psychosis model assessed as inhibition of MK-801-induced locomotion at 6 mg/kg, ip administered 5 mins prior to MK-801-challenge measured after 15 mins up to 1 hr relative to vehicle-treated control; assay type: functional; details: route intraperitoneal
Rattus norvegicus [13] = test: Antipsychotic activity in Sprague-Dawley rat psychosis model assessed as inhibition of MK-801-induced stereotypy at 3 mg/kg, ip administered 5 mins prior to MK-801-challenge measured after 15 mins up to 1 hr relative to vehicle-treated control; assay type: functional; details: route intraperitoneal
Homo sapiens [14] = species on record: Homo sapiens; test: Selectivity ratio of IC50 for PDE2A (unknown origin) to IC50 for human recombinant PDE10A
Rattus norvegicus [15] = test: Antipsychotic activity in Sprague-Dawley rat psychosis model assessed as inhibition of MK-801-induced locomotion at 1 mg/kg, ip administered 5 mins prior to MK-801-challenge measured after 15 mins up to 1 hr relative to vehicle-treated control; assay type: functional; details: route intraperitoneal
Homo sapiens [16] = species on record: Homo sapiens; test: Selectivity ratio of IC50 for PDE11A (unknown origin) to IC50 for human recombinant PDE10A
Rattus norvegicus [17] = test: Antipsychotic activity in Sprague-Dawley rat psychosis model assessed as inhibition of MK-801-induced hyperlocomotion at 30 mg/kg, po administered 5 mins prior to MK-801-challenge measured after 15 mins up to 1 hr; assay type: functional
Rattus norvegicus [18] = test: Antipsychotic activity in ip dosed Sprague-Dawley rat psychosis model assessed as inhibition of MK-801-induced ataxia administered 5 mins prior to MK-801-challenge measured after 15 mins up to 1 hr relative to vehicle-treated control; assay type: functional, organism-based
[19] = biological target: High affinity 3',5'-cyclic-AMP phosphodiesterase 7A (Homo sapiens) (UniProt Q13946); test: Inhibition of PDE7A1 (unknown origin) using [3H]-cAMP as substrate at 10 uM after 30 mins by radiometric assay
High affinity 3',5'-cyclic-AMP phosphodiesterase 7A (Homo sapiens), sequence (Q13946 whole entry): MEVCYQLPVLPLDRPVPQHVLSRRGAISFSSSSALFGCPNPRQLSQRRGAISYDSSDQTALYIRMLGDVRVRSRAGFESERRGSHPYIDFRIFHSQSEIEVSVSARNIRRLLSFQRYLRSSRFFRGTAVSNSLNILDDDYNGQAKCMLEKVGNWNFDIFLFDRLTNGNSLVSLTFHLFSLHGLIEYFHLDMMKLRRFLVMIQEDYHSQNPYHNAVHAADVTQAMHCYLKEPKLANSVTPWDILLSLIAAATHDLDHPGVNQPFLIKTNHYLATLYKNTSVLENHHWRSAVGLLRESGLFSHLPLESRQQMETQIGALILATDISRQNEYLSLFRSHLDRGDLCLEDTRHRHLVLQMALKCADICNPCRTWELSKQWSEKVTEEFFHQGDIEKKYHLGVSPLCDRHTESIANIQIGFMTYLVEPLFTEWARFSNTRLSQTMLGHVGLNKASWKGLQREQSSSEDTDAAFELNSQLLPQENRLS

Homo sapiens [20] = species on record: Homo sapiens; test: Selectivity ratio of IC50 for PDE3A (unknown origin) to IC50 for human recombinant PDE10A
[21] = biological target: cAMP and cAMP-inhibited cGMP 3',5'-cyclic phosphodiesterase 10A (Homo sapiens, UniProt Q9Y233); test: Inhibition of human recombinant PDE10A using [3H]-cAMP/[3H]-cGMP as substrate after 30 mins by radiometric assay
cAMP and cAMP-inhibited cGMP 3',5'-cyclic phosphodiesterase 10A, sequence (Q9Y233 whole entry): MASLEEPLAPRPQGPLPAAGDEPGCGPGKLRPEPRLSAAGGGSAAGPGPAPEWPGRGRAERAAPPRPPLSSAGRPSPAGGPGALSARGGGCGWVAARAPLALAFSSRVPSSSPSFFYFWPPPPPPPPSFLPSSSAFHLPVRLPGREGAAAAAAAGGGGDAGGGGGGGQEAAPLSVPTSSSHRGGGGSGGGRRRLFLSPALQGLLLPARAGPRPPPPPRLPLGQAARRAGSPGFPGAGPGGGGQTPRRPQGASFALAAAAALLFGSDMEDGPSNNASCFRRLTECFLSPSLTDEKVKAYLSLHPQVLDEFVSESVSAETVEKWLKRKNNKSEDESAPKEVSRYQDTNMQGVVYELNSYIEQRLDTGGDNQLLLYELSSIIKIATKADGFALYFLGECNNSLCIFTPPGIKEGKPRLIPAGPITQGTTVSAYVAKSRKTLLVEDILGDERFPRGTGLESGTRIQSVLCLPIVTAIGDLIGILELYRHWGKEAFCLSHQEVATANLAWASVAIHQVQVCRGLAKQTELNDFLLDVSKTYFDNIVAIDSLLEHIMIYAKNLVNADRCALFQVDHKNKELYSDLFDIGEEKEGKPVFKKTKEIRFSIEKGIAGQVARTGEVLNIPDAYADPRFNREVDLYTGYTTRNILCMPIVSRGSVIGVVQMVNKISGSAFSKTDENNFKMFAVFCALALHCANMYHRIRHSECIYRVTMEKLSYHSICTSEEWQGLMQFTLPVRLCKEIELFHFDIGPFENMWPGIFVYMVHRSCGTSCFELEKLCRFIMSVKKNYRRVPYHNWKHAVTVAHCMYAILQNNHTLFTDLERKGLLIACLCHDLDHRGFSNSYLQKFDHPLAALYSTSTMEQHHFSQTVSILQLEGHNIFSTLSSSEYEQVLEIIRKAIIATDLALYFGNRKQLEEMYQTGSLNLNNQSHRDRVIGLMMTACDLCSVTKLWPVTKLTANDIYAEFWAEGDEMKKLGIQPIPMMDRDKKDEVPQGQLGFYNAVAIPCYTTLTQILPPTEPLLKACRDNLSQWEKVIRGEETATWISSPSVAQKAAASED

Rattus norvegicus [22] = test: Antipsychotic activity in Sprague-Dawley rat psychosis model assessed as inhibition of MK-801-induced ataxia at 0.3 mg/kg, ip administered 5 mins prior to MK-801-challenge measured after 15 mins up to 1 hr relative to vehicle-treated control; assay type: functional; details: route intraperitoneal
Mus musculus [23] = test: Ratio of ED50 for antipsychotic activity in ip dosed CD-1 mouse assessed as reduction in apomorphine-induced sniffing behavior to ED50 for antipsychotic activity in ip dosed CD-1 mouse assessed as reduction in apomorphine-induced climbing behavior; assay type: functional
Rattus norvegicus [24] = test: Antipsychotic activity in Sprague-Dawley rat psychosis model assessed as inhibition of MK-801-induced ataxia at 6 mg/kg, ip administered 5 mins prior to MK-801-challenge measured after 15 mins up to 1 hr relative to vehicle-treated control; assay type: functional; details: route intraperitoneal
[25] = Drug uptake in Sprague-Dawley rat brain at 10 mg/kg, po after 30 mins; assay type: ADME, organism-based; design: dose 10 mg/kg, route oral; details: read-out: Drug uptake
[26] = biological target: 3',5'-cyclic-AMP phosphodiesterase 4D (Homo sapiens) (UniProt Q08499); test: Inhibition of PDE4D (unknown origin) using cAMP as substrate at 10 uM after 30 mins
3',5'-cyclic-AMP phosphodiesterase 4D (Homo sapiens), sequence (Q08499 whole entry): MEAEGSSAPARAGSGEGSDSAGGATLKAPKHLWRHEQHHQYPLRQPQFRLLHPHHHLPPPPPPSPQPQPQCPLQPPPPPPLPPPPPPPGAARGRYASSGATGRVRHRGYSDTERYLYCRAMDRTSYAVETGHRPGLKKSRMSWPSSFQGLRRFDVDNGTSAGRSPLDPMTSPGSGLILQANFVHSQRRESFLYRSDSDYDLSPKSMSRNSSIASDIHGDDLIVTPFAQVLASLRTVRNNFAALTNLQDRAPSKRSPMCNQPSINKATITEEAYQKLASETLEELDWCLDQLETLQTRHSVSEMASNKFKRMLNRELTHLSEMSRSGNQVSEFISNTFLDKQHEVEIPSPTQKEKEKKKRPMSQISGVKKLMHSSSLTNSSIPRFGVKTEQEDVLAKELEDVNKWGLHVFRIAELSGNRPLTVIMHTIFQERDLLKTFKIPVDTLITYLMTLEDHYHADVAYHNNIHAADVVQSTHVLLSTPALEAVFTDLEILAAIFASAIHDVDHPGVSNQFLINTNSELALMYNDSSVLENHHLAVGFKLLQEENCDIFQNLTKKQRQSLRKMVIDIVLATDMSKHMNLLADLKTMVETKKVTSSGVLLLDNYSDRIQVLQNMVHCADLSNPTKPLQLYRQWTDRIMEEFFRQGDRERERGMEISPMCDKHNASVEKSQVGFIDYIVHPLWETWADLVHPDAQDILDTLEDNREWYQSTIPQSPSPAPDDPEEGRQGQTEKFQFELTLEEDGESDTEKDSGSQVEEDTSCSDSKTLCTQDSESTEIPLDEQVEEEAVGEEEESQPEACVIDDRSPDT

Homo sapiens [27] = species on record: Homo sapiens; test: Selectivity ratio of IC50 for PDE8A (unknown origin) to IC50 for human recombinant PDE10A
[28] = biological target: High affinity cAMP-specific and IBMX-insensitive 3',5'-cyclic phosphodiesterase 8A (Homo sapiens) (UniProt O60658); test: Inhibition of PDE8A (unknown origin) using [3H]-cAMP as substrate at 10 uM after 30 mins by radiometric assay
High affinity cAMP-specific and IBMX-insensitive 3',5'-cyclic phosphodiesterase 8A (Homo sapiens), sequence (O60658 whole entry): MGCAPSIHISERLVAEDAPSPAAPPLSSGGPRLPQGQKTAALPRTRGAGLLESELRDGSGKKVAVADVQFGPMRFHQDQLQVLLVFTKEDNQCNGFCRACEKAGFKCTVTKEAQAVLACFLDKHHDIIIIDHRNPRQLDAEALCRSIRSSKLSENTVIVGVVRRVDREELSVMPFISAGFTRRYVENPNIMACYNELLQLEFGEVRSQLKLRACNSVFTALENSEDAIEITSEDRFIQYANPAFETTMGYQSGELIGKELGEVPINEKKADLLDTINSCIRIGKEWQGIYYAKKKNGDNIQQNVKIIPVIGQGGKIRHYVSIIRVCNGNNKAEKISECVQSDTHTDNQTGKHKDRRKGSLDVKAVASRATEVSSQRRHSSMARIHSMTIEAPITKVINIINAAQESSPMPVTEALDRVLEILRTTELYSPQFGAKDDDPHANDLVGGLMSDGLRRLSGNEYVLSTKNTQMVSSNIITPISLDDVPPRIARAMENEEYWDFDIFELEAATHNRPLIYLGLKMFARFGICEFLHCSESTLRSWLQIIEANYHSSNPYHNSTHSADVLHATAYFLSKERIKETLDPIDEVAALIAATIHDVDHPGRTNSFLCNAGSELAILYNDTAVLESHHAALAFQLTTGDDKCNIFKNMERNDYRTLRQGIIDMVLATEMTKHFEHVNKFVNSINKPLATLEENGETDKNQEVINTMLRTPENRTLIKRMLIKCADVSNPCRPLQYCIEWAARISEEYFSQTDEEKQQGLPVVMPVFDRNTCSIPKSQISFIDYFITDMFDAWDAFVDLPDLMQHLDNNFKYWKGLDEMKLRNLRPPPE

Rattus norvegicus [29] = test: Antipsychotic activity in Sprague-Dawley rat psychosis model assessed as inhibition of MK-801-induced ataxia at 10 mg/kg, ip administered 5 mins prior to MK-801-challenge measured after 15 mins up to 1 hr relative to vehicle-treated control; assay type: functional; details: route intraperitoneal
Rattus norvegicus [30] = test: Antipsychotic activity in Sprague-Dawley rat psychosis model assessed as inhibition of MK-801-induced locomotion at 0.3 mg/kg, ip administered 5 mins prior to MK-801-challenge measured after 15 mins up to 1 hr relative to vehicle-treated control; assay type: functional; details: route intraperitoneal
Rattus norvegicus [31] = test: Antipsychotic activity in Sprague-Dawley rat psychosis model assessed as inhibition of MK-801-induced locomotion at 3 mg/kg, ip administered 5 mins prior to MK-801-challenge measured after 15 mins up to 1 hr relative to vehicle-treated control; assay type: functional; details: route intraperitoneal
Rattus norvegicus [32] = test: Antipsychotic activity in Sprague-Dawley rat conditioned avoidance response model assessed as reduction in avoidance at 3 mg/kg, ip after 15 mins relative to vehicle-treated control; assay type: functional; design: scale not given: the % may be the effect or the level left; details: route intraperitoneal
Rattus norvegicus [33] = test: Antipsychotic activity in ip dosed Sprague-Dawley rat psychosis model assessed as inhibition of MK-801-induced locomotion administered 5 mins prior to MK-801-challenge measured after 15 mins up to 1 hr relative to vehicle-treated control; assay type: functional

half-life [3]: 2.1 h
remaining at 1 h [6]: 57%
Kp at 0.5 h [9]: 1.82
Ratio IC50 (Homo sapiens [10]): > 500
inhibition [11]: 16.5%
Ratio IC50 (Homo sapiens [14]): > 500
Ratio IC50 (Homo sapiens [16]): > 500
inhibition [19]: 44%
Ratio IC50 (Homo sapiens [20]): > 500
IC50 [21]: 7.45 nM
concentration at 0.5 h [25]: 672 ng/g
inhibition [26]: 0%
Ratio IC50 (Homo sapiens [27]): > 500
inhibition [28]: 18.5%
SMILES: Cc1nc(C2CCOCC2)n2c1sc1cc(OCc3ccc4ccccc4n3)ccc12
ED50 (Mus musculus [1]): 16.3 mg/kg
ED50 (Mus musculus [2]): 2.68 mg/kg
ED50 (Rattus norvegicus [4]): 1.27 mg/kg
inhibition in vivo at 0.3 mg/kg (Rattus norvegicus [5]): 58%
Activity (Rattus norvegicus [7]): 94%
Activity (Rattus norvegicus [8]): 26%
inhibition in vivo at 6 mg/kg (Rattus norvegicus [12]): 76%
inhibition in vivo at 3 mg/kg (Rattus norvegicus [13]): 27%
inhibition in vivo at 1 mg/kg (Rattus norvegicus [15]): 41%
inhibition in vivo at 30 mg/kg (Rattus norvegicus [17]): 75%
inhibition (Rattus norvegicus [18]): Dose-dependent effect
inhibition in vivo at 0.3 mg/kg (Rattus norvegicus [22]): 3%
Ratio ED50 (Mus musculus [23]): 6.08
inhibition in vivo at 6 mg/kg (Rattus norvegicus [24]): 46%
inhibition in vivo at 10 mg/kg (Rattus norvegicus [29]): 82%
inhibition in vivo at 0.3 mg/kg (Rattus norvegicus [30]): 13%
inhibition in vivo at 3 mg/kg (Rattus norvegicus [31]): 58%
Activity (Rattus norvegicus [32]): 67%
ED50 (Rattus norvegicus [33]): 1.44 mg/kg
inhibition (Rattus norvegicus [33]): Dose-dependent effect
